According to patent publication US20230131899A1, “INHIBITORS OF MICROBIALLY INDUCED AMYLOID” (Axial Therapeutics, Inc., priority 2020, published 2023):
Where two headings read alike, the source gives them in different places.

System: CsgA gene expression (csgBAC promoter-GFP reporter) in E. coli UTI89
Experiment: In vitro live cell fluorescent reporter assay of CsgA transcription (Reporter Assay)
Format: cell-based
Procedure, shortened: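 Chromosomal single-copy csgBAC promoter–GFP reporter in E. coli UTI89, started at OD600 0.003 in YESCA broth with compound (0.14–100 μM, 1% DMSO), 20 h at 27 °C. GFP (ex 485/em 525 nm) background-subtracted and normalized to vehicle; IC50 and X[50] from curve fits. OD600 tracked growth effects.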

[1] = Escherichia coli, read-out: Reporter Assay Abs IC50 (activity range), median Abs IC50 in the CsgA reporter assay, class symbol
[2] = Escherichia coli, read-out: Reporter Assay Abs IC50 (μM), median Abs IC50 in the CsgA reporter assay, N/A = maximum expression reduction is <50% of control
[3] = Escherichia coli, read-out: Reporter Assay Abs IC50, activity range, class symbol
[4] = read-out: Reporter Assay Abs IC50 (activity range), median Abs IC50 in the CsgA reporter assay, class symbol
[5] = read-out: Reporter Assay Abs IC50, median Abs IC50 in the CsgA reporter assay, N/A = maximum expression reduction is <50% of control

O=C(O)C1CN(C[C@@H](O)CO)S(=O)(=O)c2c(-c3cccc(C(F)(F)F)c3)c(Cc3cccc4ccccc34)cc(=O)n21 (mixture of isomers) [Compound 065b, 2-((R)-2,3-dihydroxypropyl)-8-(naphthalen-1-ylmethyl)-6-oxo-9-(3-(trifluoromethyl)phenyl)-3,4-dihydro-2H,6H-pyrido[1,2-e][1,2,5]thiadiazine-4-carboxylic acid 1,1-dioxide]
IC50 [1]: > 10 µM
IC50 [2]: 18.1 µM

O=C(O)C1CN(C[C@H](O)[C@@H](O)[C@H](O)[C@H](O)CO)S(=O)(=O)c2c(-c3cccc(C(F)(F)F)c3)c(Cc3cccc4ccccc34)cc(=O)n21 (mixture of isomers) [Compound 066, 8-(naphthalen-1-ylmethyl)-6-oxo-2-((2S,3R,4R,5R)-2,3,4,5,6-pentahydroxyhexyl)-9-(3-(trifluoromethyl)phenyl)-3,4-dihydro-2H,6H-pyrido[1,2-e][1,2,5]thiadiazine-4-carboxylic acid 1,1-dioxide]
IC50 [1]: > 10 µM
IC50 [2]: 40.2 µM

O=C(O)[C@@H]1CN(Cc2ccccc2)c2c(-c3cccc(C(F)(F)F)c3)c(Cc3cccc4ccccc34)c(Cl)c(=O)n21 (single isomer, unassigned) [Compound 004a]
IC50 [2]: 0.2 µM
IC50 [3]: < 1.3 µM

O=C(O)[C@H]1CN(Cc2ccccc2)c2c(-c3cccc(C(F)(F)F)c3)c(Cc3cccc4ccccc34)c(Cl)c(=O)n21 (single isomer, unassigned) [Compound 004b]
IC50 [2]: 0.5 µM
IC50 [3]: < 1.3 µM

CCCN1CC(C(=O)O)n2c(c(-c3cccc(C(F)(F)F)c3)c(Cc3cccc4ccccc34)cc2=O)S1(=O)=O (single isomer, unassigned) [Compound 016b, 8-(naphthalen-1-ylmethyl)-6-oxo-2-propyl-9-(3-(trifluoromethyl)phenyl)-3,4-dihydro-2H,6H-pyrido[1,2-e][1,2,5]thiadiazine-4-carboxylic acid 1,1-dioxide]
IC50 [4]: 4.6 to 10 µM
IC50 [5]: 6.6 µM

Nc1c(Cc2cccc3ccccc23)c(-c2cccc(C(F)(F)F)c2)c2n(c1=O)C(C(=O)O)CS2 (single isomer, unassigned) [Compound 020b, 6-amino-7-(naphthalen-1-ylmethyl)-5-oxo-8-(3-(trifluoromethyl)phenyl)-2,3-dihydro-5H-thiazolo[3,2-a]pyridine-3-carboxylic acid]
IC50 [4]: 4.6 to 10 µM
IC50 [5]: 5.7 µM

CCCCCN1CC(C(=O)O)n2c(c(-c3cccc(C(F)(F)F)c3)c(Cc3cccc4ccccc34)cc2=O)S1(=O)=O (single isomer, unassigned) [Compound 025a, 8-(naphthalen-1-ylmethyl)-6-oxo-2-pentyl-9-(3-(trifluoromethyl)phenyl)-3,4-dihydro-2H,6H-pyrido[1,2-e][1,2,5]thiadiazine-4-carboxylic acid 1,1-dioxide]
IC50 [1]: 1.3 to 4.5 µM
IC50 [2]: 2 µM

O=C(O)C1CN(Cc2ccccc2)c2c(-c3cccc(C(F)(F)F)c3)c(Cc3cccc4ccccc34)c(Br)c(=O)n21 (stereo not drawn) [Compound 003, 1-benzyl-6-bromo-7-(naphthalen-1-ylmethyl)-5-oxo-8-(3-(trifluoromethyl)phenyl)-1,2,3,5-tetrahydroimidazo[1,2-a]pyridine-3-carboxylic acid]
IC50 [2]: 0.8 µM
IC50 [3]: < 1.3 µM

O=C(O)C1CN(Cc2ccccc2)c2c(-c3cccc(C(F)(F)F)c3)c(Cc3cccc4ccccc34)c(Cl)c(=O)n21 (stereo not drawn) [Compound 004, 1-benzyl-6-chloro-7-(naphthalen-1-ylmethyl)-5-oxo-8-(3-(trifluoromethyl)phenyl)-1,2,3,5-tetrahydroimidazo[1,2-a]pyridine-3-carboxylic acid]
IC50 [2]: 0.7 µM
IC50 [3]: < 1.3 µM

CNC(=O)C1CN(C)S(=O)(=O)c2c(-c3cccc(C(F)(F)F)c3)c(Cc3cccc4ccccc34)cc(=O)n21 (stereo not drawn) [Compound 031, N,2-dimethyl-8-(naphthalen-1-ylmethyl)-6-oxo-9-(3-(trifluoromethyl)phenyl)-3,4-dihydro-2H,6H-pyrido[1,2-e][1,2,5]thiadiazine-4-carboxamide 1,1-dioxide]
IC50 [1]: 1.3 to 4.5 µM
IC50 [2]: 4.2 µM

CN(C)C(=O)C1CN(C)S(=O)(=O)c2c(-c3cccc(C(F)(F)F)c3)c(Cc3cccc4ccccc34)cc(=O)n21 (stereo not drawn) [Compound 032, N,N-2-trimethyl-8-(naphthalen-1-ylmethyl)-6-oxo-9-(3-(trifluoromethyl)phenyl)-3,4-dihydro-2H,6H-pyrido[1,2-e][1,2,5]thiadiazine-4-carboxamide 1,1-dioxide]
IC50 [1]: 1.3 to 4.5 µM
IC50 [2]: 3.3 µM

Cn1c(=O)c2c(ncn2CCCCN2CC(C(=O)O)n3c(c(-c4cccc(C(F)(F)F)c4)c(Cc4cccc5ccccc45)cc3=O)S2(=O)=O)n(C)c1=O (stereo not drawn) [Compound 033, 2-(4-(1,3-dimethyl-2,6-dioxo-1,2,3,6-tetrahydro-7H-purin-7-yl)butyl)-8-(naphthalen-1-ylmethyl)-6-oxo-9-(3-(trifluoromethyl)phenyl)-3,4-dihydro-2H,6H-pyrido[1,2-e][1,2,5]thiadiazine-4-carboxylic acid 1,1-dioxide]
IC50 [1]: 1.3 to 4.5 µM
IC50 [2]: 3.3 µM

Cn1c(=O)c2c(ncn2CCCCCN2CC(C(=O)O)n3c(c(-c4cccc(C(F)(F)F)c4)c(Cc4cccc5ccccc45)cc3=O)S2(=O)=O)n(C)c1=O (stereo not drawn) [Compound 034, 2-(5-(1,3-dimethyl-2,6-dioxo-1,2,3,6-tetrahydro-7H-purin-7-yl)pentyl)-8-(naphthalen-1-ylmethyl)-6-oxo-9-(3-(trifluoromethyl)phenyl)-3,4-dihydro-2H,6H-pyrido[1,2-e][1,2,5]thiadiazine-4-carboxylic acid 1,1-dioxide]
IC50 [1]: 1.3 to 4.5 µM
IC50 [2]: 2.8 µM

Cn1c(=O)c2c(ncn2CCCCCCCN2CC(C(=O)O)n3c(c(-c4cccc(C(F)(F)F)c4)c(Cc4cccc5ccccc45)cc3=O)S2(=O)=O)n(C)c1=O (stereo not drawn) [Compound 036]
IC50 [1]: 1.3 to 4.5 µM
IC50 [2]: 1.6 µM

CNC(=O)CCCN1CC(C(=O)O)n2c(c(-c3cccc(C(F)(F)F)c3)c(Cc3cccc4ccccc34)cc2=O)S1(=O)=O (stereo not drawn) [Compound 037, 2-(4-(methylamino)-4-oxobutyl)-8-(naphthalen-1-ylmethyl)-6-oxo-9-(3-(trifluoromethyl)phenyl)-3,4-dihydro-2H,6H-pyrido[1,2-e][1,2,5]thiadiazine-4-carboxylic acid 1,1-dioxide]
IC50 [1]: > 10 µM
IC50 [2]: 23.6 µM

CNC(=O)CCCCN1CC(C(=O)O)n2c(c(-c3cccc(C(F)(F)F)c3)c(Cc3cccc4ccccc34)cc2=O)S1(=O)=O (stereo not drawn) [Compound 038, 2-(5-(methylamino)-5-oxopentyl)-8-(naphthalen-1-ylmethyl)-6-oxo-9-(3-(trifluoromethyl)phenyl)-3,4-dihydro-2H,6H-pyrido[1,2-e][1,2,5]thiadiazine-4-carboxylic acid 1,1-dioxide]
IC50 [1]: > 10 µM
IC50 [2]: 24 µM

Nc1c(Cc2ccc(N)c3ccccc23)c(-c2cccc(C(F)(F)F)c2)c2n(c1=O)C(C(=O)O)CNS2(=O)=O (stereo not drawn) [Compound 041]
IC50 [1]: > 10 µM
IC50 [2]: 20.2 µM

CC1(C(=O)O)CNS(=O)(=O)c2c(-c3cccc(C(F)(F)F)c3)c(Cc3cccc4ccccc34)cc(=O)n21 (stereo not drawn) [Compound 042, 4-methyl-8-(naphthalen-1-ylmethyl)-6-oxo-9-(3-(trifluoromethyl)phenyl)-3,4-dihydro-2H,6H-pyrido[1,2-e][1,2,5]thiadiazine-4-carboxylic acid 1,1-dioxide]
IC50 [1]: 1.3 to 4.5 µM
IC50 [2]: 3.3 µM
